Measured values taken from patent US20240174669A1, “CRYSTALLINE FORMS OF A PARP1 INHIBITOR” (XinThera, Inc., priority 2022, published 2024).

Columns and labels:
Format in all cases: physicochemical
[1] = Purity of filtrates / degradation in bio-relevant media (FeSSIF); details: for impurity RRT 1.09 / impurity RRT 1.74 / impurity RRT 1.91 / impurity RRT 1.95 / HPLC Purity API, Sample 1 / HPLC Purity API, Sample 2: FeSSIF filtrate, 220 nm; for impurity RRT 1.09 / impurity RRT 1.74 / impurity RRT 1.91 / impurity RRT 1.95 / HPLC Purity API, Sample 1: Sample 1; for Filtrate Purity 220 nm-24 h: 37° C., starting purity 99.26%
Description: About 15 mg of freebase Form II was weighed into sample vials, and then 3 mL of each media was added to make suspensions, respectively. At 0.5, 2 and 24 hours, about 1 mL of each suspension was filtered, the filtrate was analyzed by HPLC and pH, and the filter cake was analyzed by XRPD. Duplicated samples were prepared for each media.
Compared to control pH buffers, the solubility increased to ˜20 μg/mL in FaSSIF and ˜100 μg/mL in FeSSIF, possibly due to the solubilization effect of bile salt. […] Compared to FaSSIF, concentration of bile salt is 5-fold in FeSSIF. The degradation issue in FeSSIF was confirmed with another two batches (Lot #3 and Lot #2) of freebase Form II at 0.5-8 hours, as summarized in Table 12 and Table 13. Several impurities increased rapidly with time.
HPLC analysis was performed with an Agilent HPLC 1260 series instrument.

[2] = Suspension formulation stability in 0.5% MC pH 3 buffer
Description: About 9 mg of free base Form II (Lot#1) was added into 0.3 mL of 0.5% MC pH 3 buffer, and stirred at RT for 30 min to make a suspension with 30 mg/mL drug loading (Day 0 sample). The suspension samples in vials, prepared at the same time, were kept at RT for 3 or 7 days. At each time point, the whole suspension in a vial was dissolved in 8.7 mL water/ACN (1:1, v/v) and then was analyzed by HPLC. Sedimentation of suspension was checked by visual observation, and the solids in another vial were tested by PLM and XRPD.

[3] = Solid-state stability
Description: Solid-state stability of free base Form II (Lot#1) was conducted at 60° C. (capped) and 40° C./75% RH (open) for 7 days. The stability sample was dissolved in diluent to prepare solution at ˜0.5 mg/mL for HPLC purity analysis. Solid samples were analyzed by XRPD to check the crystalline form. […] (capped) and 40° C./75% RH (open) after 7 days.

[4] = DVS moisture sorption (hygroscopicity)
Description: Moisture sorption/desorption data were collected on a DVS instrument. About 75 mg of a sample was placed into a tared sample chamber and automatically weighed. The anhydrate was analyzed with the setting parameters in the table below.

[5] = 0.5% MC pH 3 citrate buffer, up to 7 days

impurity RRT 1.09 ([1]; 2 hr, listed as Lot# 2): 1.18 area %
impurity RRT 1.74 ([1]; 2 hr, listed as Lot# 2): 1.52 area %
impurity RRT 1.91 ([1]; 2 hr, listed as Lot# 2): 5.63 area %
impurity RRT 1.95 ([1]; 2 hr, listed as Lot# 2): 0.89 area %
HPLC Purity API, Sample 1 ([1]; 2 hr, listed as Lot# 3): 91.52 area %
impurity RRT 1.09 ([1]; 2 hr, listed as Lot# 3): 0.22 area %
impurity RRT 1.74 ([1]; 2 hr, listed as Lot# 3): 0.35 area %
impurity RRT 1.91 ([1]; 2 hr, listed as Lot# 3): 1.09 area %
impurity RRT 1.95 ([1]; 2 hr, listed as Lot# 3): 0.39 area %
HPLC Purity API, Sample 2 ([1]; 2 hr, listed as Lot# 2): 77.22 area %
HPLC Purity API, Sample 2 ([1]; 2 hr, listed as Lot# 3): 90.33 area %
HPLC Purity API, Sample 1 ([1]; 4 hr, listed as Lot# 2): 65.06 area %
impurity RRT 1.09 ([1]; 4 hr, listed as Lot# 2): 3.56 area %
impurity RRT 1.74 ([1]; 4 hr, listed as Lot# 2): 2.64 area %
impurity RRT 1.91 ([1]; 4 hr, listed as Lot# 2): 9.12 area %
impurity RRT 1.95 ([1]; 4 hr, listed as Lot# 2): 1.67 area %
HPLC Purity API, Sample 1 ([1]; 4 hr, listed as Lot# 3): 84.44 area %
impurity RRT 1.09 ([1]; 4 hr, listed as Lot# 3): 1.00 area %
impurity RRT 1.74 ([1]; 4 hr, listed as Lot# 3): 0.82 area %
impurity RRT 1.91 ([1]; 4 hr, listed as Lot# 3): 3.55 area %
impurity RRT 1.95 ([1]; 4 hr, listed as Lot# 3): 0.69 area %
HPLC Purity API, Sample 2 ([1]; 4 hr, listed as Lot# 2): 60.63 area %
HPLC Purity API, Sample 2 ([1]; 4 hr, listed as Lot# 3): 77.77 area %
HPLC Purity API, Sample 1 ([1]; 8 hr, listed as Lot# 2): 50.99 area %
impurity RRT 1.09 ([1]; 8 hr, listed as Lot# 2): 6.24 area %
impurity RRT 1.74 ([1]; 8 hr, listed as Lot# 2): 5.16 area %
impurity RRT 1.91 ([1]; 8 hr, listed as Lot# 2): 8.77 area %
impurity RRT 1.95 ([1]; 8 hr, listed as Lot# 2): 3.62 area %
HPLC Purity API, Sample 1 ([1]; 8 hr, listed as Lot# 3): 66.91 area %
impurity RRT 1.09 ([1]; 8 hr, listed as Lot# 3): 4.10 area %
impurity RRT 1.74 ([1]; 8 hr, listed as Lot# 3): 2.41 area %
impurity RRT 1.91 ([1]; 8 hr, listed as Lot# 3): 7.91 area %
impurity RRT 1.95 ([1]; 8 hr, listed as Lot# 3): 1.57 area %
HPLC Purity API, Sample 2 ([1]; 8 hr, listed as Lot# 2): 47.77 area %
HPLC Purity API, Sample 2 ([1]; 8 hr, listed as Lot# 3): 57.55 area %
Filtrate Purity 220 nm-24 h ([1]; FeSSIF): 55%
Filtrate Purity 220 nm-24 h ([1]; SGF): 99.28%
crystalline form in suspension [2, 5]: remained unchanged
purity change in suspension [2, 5]: no purity decrease was observed
Purity (area %, 220 nm) Initial ([2]; initial, before suspension): 99.25 area %
sedimentation of suspension (visual observation) ([2]; kept at RT for 3 or 7 days, homogeneous again after swirling 1 min): Sedimentation was observed
Purity (area %, 220 nm) Day 0 ([2]; suspension in 0.5% MC pH 3 buffer (100 mM citrate), 30 mg/mL, RT, Day 0): 99.30 area %
Purity (area %, 220 nm) Day 3 ([2]; suspension in 0.5% MC pH 3 buffer (100 mM citrate), 30 mg/mL, RT, Day 3): 99.28 area %
Purity (area %, 220 nm) Day 7 ([2]; suspension in 0.5% MC pH 3 buffer (100 mM citrate), 30 mg/mL, RT, Day 7): 99.26 area %
Purity (area %) @7 D 40° C./75% RH ([3]; 40° C./75% RH (open), 7 days): 99.26 area %
XRPD @7 D 40° C./75% RH ([3]; 40° C./75% RH (open), 7 days): Unchanged
solid-state stability ([3]; 60° C. (capped) and 40° C./75% RH (open), after 7 days): physically and chemically stable
Purity (area %) @7 D 60° C. ([3]; 60° C. (capped), 7 days): 99.25 area %
XRPD @7 D 60° C. ([3]; 60° C. (capped), 7 days): Unchanged
Purity (area %) Initial ([3]; initial): 99.26 area %
crystalline form after DVS test [4]: remained unchanged
hygroscopicity (DVS) [4]: non-hygroscopic
water uptake (DVS) ([4]; at 80% RH, 25° C.): 0.19%
SMILES: CNC(=O)c1ccc(N2CCN(Cc3cnc4cc(C5CC5)c(=O)[nH]c4c3)CC2)cn1 [Freebase Form II, 5-(4-((7-cyclopropyl-6-oxo-5,6-dihydro-1,5-naphthyridin-3-yl)methyl)piperazin-1-yl)-N-methylpicolinamide]
